The values below are quoted from earlier work in PMC10719327, “A dose-escalation study of HP501, a highly selective URAT1 inhibitor, in male Chinese patients with hyperuricemia” (Scientific Reports, 2023).

The test system of data set [1] is Japanese patients with hyperuricemia. Further details: method as in PMID 30334639.
For the next data set, the system named is patients. Further details: method as in PMID 29029210. As to conditions: lesinurad monotherapy.

Turning to `CC(C)(Sc1ccncc1-c1ccc(C#N)c2ccccc12)C(=O)O` [Verinurad], the “patients with serum creatinine elevated 1.5 times to baseline level” value in data set [1] was 17.1%.
For the molecule `O=C(O)CSc1nnc(Br)n1-c1ccc(C2CC2)c2ccccc12` [lesinurad], the “patients with increased serum creatinine” value with patients is reported as “About 24.30%”.
